# Patent US20250179103A1, “6-OXODECAHYDROPYRROLO[1,2-A][1,5]DIAZOCINE AND 6-OXODECAHYDRO-4H-PYRROLO[2,1-D][1,5]THIAZOCINE DERIVATIVES AS STAT3 AND STAT6 MODULATORS FOR THE TREATMENT OF CANCER AND INFLAMMATORY CONDITIONS” (Recludix Pharma, Inc., priority 2022, published 2025)
# Assays:
# [1] = target: T1, Recombinant STAT3 protein (STAT3(G127-I722)) (Homo sapiens, UniProt P40763); test: STAT3 Fluorescence Polarization (FP) Assay; type: binding; details: STAT3(G127-I722) 25 nM, probe 5-FAM-GpYLPQTV-NH2 2 nM, 45-minute incubation
# T1 construct: Recombinant STAT3 protein (STAT3(G127-I722))
# T1 sequence (P40763 127-722): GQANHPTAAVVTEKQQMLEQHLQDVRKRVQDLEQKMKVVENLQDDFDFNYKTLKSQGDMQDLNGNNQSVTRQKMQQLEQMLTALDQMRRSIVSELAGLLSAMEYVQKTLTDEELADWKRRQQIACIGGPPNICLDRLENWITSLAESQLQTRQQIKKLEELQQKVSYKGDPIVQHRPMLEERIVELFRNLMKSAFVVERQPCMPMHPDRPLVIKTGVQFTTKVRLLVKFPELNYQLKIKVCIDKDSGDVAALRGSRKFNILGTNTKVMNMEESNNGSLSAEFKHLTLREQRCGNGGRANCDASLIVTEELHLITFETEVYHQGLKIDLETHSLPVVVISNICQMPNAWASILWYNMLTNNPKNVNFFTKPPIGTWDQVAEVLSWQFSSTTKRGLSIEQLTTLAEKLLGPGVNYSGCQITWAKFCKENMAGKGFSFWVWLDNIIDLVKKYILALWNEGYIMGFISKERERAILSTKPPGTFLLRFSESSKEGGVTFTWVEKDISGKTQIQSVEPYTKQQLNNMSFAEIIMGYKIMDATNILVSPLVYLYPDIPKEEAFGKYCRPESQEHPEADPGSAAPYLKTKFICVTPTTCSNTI
# In short: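 STAT3(G127-I722), 25 nM, was mixed with 2 nM 5-FAM-GpYLPQTV-NH2 probe in HEPES pH 7.4 buffer with 1% DMSO and serially diluted compound. FP (mP) was read after 45 min at room temperature. IC50 came from nonlinear regression.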
# [2] = target: T2, Recombinant STAT6 protein (STAT6(W123-T658)) (Homo sapiens, UniProt P42226); test: STAT6 Fluorescence Polarization (FP) Assay; type: binding; details: STAT6(W123-T658) 250 nM, probe 5-FAM-ApYKPFQDLI-NH2 2 nM, 45-minute incubation
# T2 construct: Recombinant STAT6 protein (STAT6(W123-T658))
# T2 sequence (P42226 123-658): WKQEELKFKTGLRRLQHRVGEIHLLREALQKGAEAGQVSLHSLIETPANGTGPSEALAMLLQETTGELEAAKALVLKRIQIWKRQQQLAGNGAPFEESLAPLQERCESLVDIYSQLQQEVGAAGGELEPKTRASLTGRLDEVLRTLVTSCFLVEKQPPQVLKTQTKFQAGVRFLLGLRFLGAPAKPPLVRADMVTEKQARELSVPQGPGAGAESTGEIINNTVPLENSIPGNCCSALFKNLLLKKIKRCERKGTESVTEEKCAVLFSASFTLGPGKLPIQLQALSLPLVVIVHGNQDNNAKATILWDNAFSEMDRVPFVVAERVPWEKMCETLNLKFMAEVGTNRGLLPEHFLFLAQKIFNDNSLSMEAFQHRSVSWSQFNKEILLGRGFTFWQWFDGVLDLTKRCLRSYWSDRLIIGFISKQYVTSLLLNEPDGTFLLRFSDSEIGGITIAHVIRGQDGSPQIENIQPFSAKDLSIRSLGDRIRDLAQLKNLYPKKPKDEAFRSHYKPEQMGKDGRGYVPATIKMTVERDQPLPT
# In short: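 Displacement of a fluorescent phosphotyrosine peptide (5-FAM-ApYKPFQDLI-NH2, 2 nM) from STAT6(W123-T658) (250 nM), 1% DMSO, pH 7.4 HEPES buffer. After 45 min at room temperature, polarization (mP) was plotted versus log compound concentration and fitted by nonlinear regression to give IC50.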
Compound,IC50 [1] [µM],IC50 [2] [µM]
"CCc1ccc2onc(C(=O)N3CC[C@H]4CC[C@@H](C(=O)N5CCOCC56CC6)N4C(=O)[C@@H](NC(=O)c4ccc5ccc(C(F)P(=O)(O)O)cc5c4)C3)c2c1 (stereo partly drawn) [Compound 374, ((7-(((5S,8S,10aR)-3-(5-ethylbenzo[d]isoxazole-3-carbonyl)-6-oxo-8-(7-oxa-4-azaspiro[2.5]octane-4-carbonyl)decahydropyrrolo[1,2-a][1,5]diazocin-5-yl)carbamoyl)naphthalen-2-yl)fluoromethyl) phosphonic acid]",> 10,≤ 0.3
"CC(C)CN1CC[C@H]2CC[C@@H](C(=O)N3CC(C(=O)N4CCOCC4)C3)N2C(=O)[C@@H](NC(=O)c2cc3cc(C(F)(F)P(=O)(O)O)ccc3s2)C1 [Compound 257, (difluoro(2-(((5S,8S,10aR)-3-isobutyl-8-(3-(morpholine-4-carbonyl)azetidine-1-carbonyl)-6-oxodecahydropyrrolo[1,2-a][1,5]diazocin-5-yl)carbamoyl)benzo[b]thiophen-5-yl)methyl)phosphonic acid]",0.1 to 1,3 to 30
"O=C(N[C@H]1CN(c2ccccn2)C[C@H]2CC[C@@H](C(=O)N3CCOCC3)N2C1=O)c1ccc2ccc(C(F)P(=O)(O)O)cc2c1 (stereo partly drawn) [Compound 393, (fluoro(7-(((4S,7S,9aR)-7-(morpholine-4-carbonyl)-5-oxo-2-(pyridin-2-yl)octahydro-1H-pyrrolo[1,2-a][1,4]diazepin-4-yl)carbamoyl)naphthalen-2-yl)methyl) phosphonic acid]",> 10,> 30
"CC(=O)N1CC[C@H]2CC[C@@H](C(=O)N3CCC(Oc4ccncc4)C3)N2C(=O)[C@@H](NC(=O)c2cc3cc(C(F)(F)P(=O)(O)O)ccc3s2)C1 (stereo partly drawn) [Compound 95, ((1-(((5S,8S,10aR)-3-acetyl-6-oxo-8-(3-(pyridin-4-yloxy)pyrrolidine-1-carbonyl)decahydropyrrolo[1,2-a][1,5]diazocin-5-yl)carbamoyl)benzo[b]thiophen-5-yl)difluoromethyl)phosphonic acid]",0.1 to 1,0.3 to 3
"CC(=O)N1CC[C@H]2CC[C@@H](C(=O)N3Cc4cnn(-c5ncccn5)c4C3)N2C(=O)[C@@H](NC(=O)c2cc3cc(C(F)(F)P(=O)(O)O)ccc3s2)C1 [Compound 87, ((2-(((5S,8S,10aR)-3-acetyl-6-oxo-8-(1-(pyrimidin-2-yl)-1,4,5,6-tetrahydropyrrolo[3,4-c]pyrazole-5-carbonyl)decahydropyrrolo[1,2-a][1,5]diazocin-5-yl)carbamoyl)benzo[b]thiophen-5-yl)difluoromethyl)phosphonic acid]",1 to 10,0.3 to 3
"CC(=O)N1CC[C@H]2CC[C@@H](C(=O)N3C[C@H](C#N)C[C@@H]3Cc3ccccc3)N2C(=O)[C@@H](NC(=O)c2cc3cc(C(F)(F)P(=O)(O)O)ccc3s2)C1 [Compound 43, ((2-(((5S,8S,10aR)-3-acetyl-8-((2R,4R)-2-benzyl-4-cyanopyrrolidine-1-carbonyl)-6-oxodecahydropyrrolo[1,2-a][1,5]diazocin-5-yl)carbamoyl)benzo[b]thiophen-5-yl)difluoromethyl)phosphonic acid]",1 to 10,0.3 to 3
"CN(C(=O)[C@@H]1CC[C@@H]2CCN(CC(F)F)C[C@H](NC(=O)c3ccc4ccc(C(F)(F)P(=O)(O)O)cc4c3)C(=O)N21)C1CCN(S(C)(=O)=O)CC1 [Compound 244, ((7-(((5S,8S,10aR)-3-(2,2-difluoroethyl)-8-(methyl(1-(methylsulfonyl)piperidin-4-yl)carbamoyl)-6-oxodecahydropyrrolo[1,2-a][1,5]diazocin-5-yl)carbamoyl)naphthalen-2-yl)difluoromethyl)phosphonic acid]",1 to 10,0.3 to 3
"Cc1ccc2[nH]nc(C(=O)N3CC[C@H]4CC[C@@H](C(=O)N(C)C5CC5)N4C(=O)[C@@H](NC(=O)c4ccc5ccc(C(F)(F)P(=O)(O)O)cc5c4)C3)c2c1 [Compound 270, ((7-(((5S,8S,10aR)-8-(cyclopropyl(methyl)carbamoyl)-3-(5-methyl-1H-indazole-3-carbonyl)-6-oxodecahydropyrrolo[1,2-a][1,5]diazocin-5-yl)carbamoyl)naphthalen-2-yl)difluoromethyl)phosphonic acid]",1 to 10,≤ 0.3
"((2-(((5S,8S,10aR)-3-acetyl-8-((rel-trans)-3-cyano-3-methyl-4-phenylpyrrolidine-1-carbonyl)-6-oxodecahydropyrrolo[1,2-a][1,5]diazocin-5-yl)carbamoyl)benzo[b]thiophen-5-yl)difluoromethyl)phosphonic acid [Compound 41]",1 to 10,≤ 0.3

# The remaining lines, values ahead:
IC50 [1] [µM],IC50 [2] [µM],Compound
1 to 10,0.3 to 3,"CC(=O)N1CC[C@H]2CC[C@@H](C(=O)N3C[C@H](C#N)C[C@@H]3c3ccccc3)N2C(=O)[C@@H](NC(=O)c2cc3cc(C(F)(F)P(=O)(O)O)ccc3s2)C1 (relative stereo) [Compound 205, ((2-(((5S,8S,10aR)-3-acetyl-8-((rel-cis)-4-cyano-2-phenylpyrrolidine-1-carbonyl)-6-oxodecahydropyrrolo[1,2-a][1,5]diazocin-5-yl)carbamoyl)benzo[b]thiophen-5-yl)difluoromethyl)phosphonic acid]"
> 10,> 30,"CC(=O)N1CC[C@H]2CC[C@@H](C(=O)N(C)c3ccccc3)N2C(=O)[C@@H](NC(=O)c2cc3cc(C(C)P(=O)(O)O)ccc3s2)C1 (stereo partly drawn) [Compound 20, (1-(2-(((5S,8S,10aR)-3-acetyl-8-(methyl(phenyl)carbamoyl)-6-oxodecahydropyrrolo[1,2-a][1,5]diazocin-5-yl)carbamoyl)benzo[b]thiophen-5-yl)ethyl)phosphonic acid]"
0.1 to 1,0.3 to 3,"CC(=O)N1CC[C@H]2CC[C@@H](C(=O)Nc3ccc4ccccc4c3)N2C(=O)[C@@H](NC(=O)c2cc3cc(C(F)(F)P(=O)(O)O)ccc3s2)C1 [Compound 173, ((2-(((5S,8S,10aR)-3-acetyl-8-(naphthalen-2-ylcarbamoyl)-6-oxodecahydropyrrolo[1,2-a][1,5]diazocin-5-yl)carbamoyl)benzo[b]thiophen-5-yl)difluoromethyl)phosphonic acid]"
1 to 10,0.3 to 3,"CC(=O)N1CC[C@H]2CC[C@@H](C(=O)N(C)c3ccc(C(C)(C)C)cc3)N2C(=O)[C@@H](NC(=O)c2cc3cc(C(F)(F)P(=O)(O)O)ccc3s2)C1 [Compound 185, ((2-(((5S,8S,10aR)-3-acetyl-8-((4-(tert-butyl)phenyl)(methyl)carbamoyl)-6-oxodecahydropyrrolo[1,2-a][1,5]diazocin-5-yl)carbamoyl)benzo[b]thiophen-5-yl)difluoromethyl)phosphonic acid]"
1 to 10,0.3 to 3,CC(=O)N1CC[C@H]2CC[C@@H](C(=O)N(C)c3ccccc3)N2C(=O)[C@@H](NC(=O)c2cc3cc(C(F)(F)P(=O)(O)O)ccc3[nH]2)C1 [Compound 30]
> 10,0.3 to 3,"CC(=O)N1CC[C@H]2CC[C@@H](C(=O)N(C)c3ccccc3)N2C(=O)[C@@H](NC(=O)c2ccc3ccc(C(F)(F)P(=O)(O)O)cc3c2)C1 [Compound 111, ((7-(((5S,8S,10aR)-3-acetyl-8-(methyl(phenyl)carbamoyl)-6-oxodecahydropyrrolo[1,2-a][1,5]diazocin-5-yl)carbamoyl)naphthalen-2-yl)difluoromethyl)phosphonic acid]"
